# Source: PMC8424217 (The Journal of Biological Chemistry, 2021)
# Peptide text beside a SMILES is read from it. * marks the point of attachment. Palmitoyl = CCCCCCCCCCCCCCCC(=O)*
# What was measured:
# Format in all cases: cell-based
# hUT [1] = molecular target: T1, hUT (Homo sapiens, UniProt Q9UKP6); test: Gq activation, BRET biosensor, HEK 293-hUT cells; parameters: expressed in transfected cells; details: mean ± SEM; for EC50: n = 3–5, read-out: Gq activation pEC50 (converted)
# T1 sequence (Q9UKP6 1-389): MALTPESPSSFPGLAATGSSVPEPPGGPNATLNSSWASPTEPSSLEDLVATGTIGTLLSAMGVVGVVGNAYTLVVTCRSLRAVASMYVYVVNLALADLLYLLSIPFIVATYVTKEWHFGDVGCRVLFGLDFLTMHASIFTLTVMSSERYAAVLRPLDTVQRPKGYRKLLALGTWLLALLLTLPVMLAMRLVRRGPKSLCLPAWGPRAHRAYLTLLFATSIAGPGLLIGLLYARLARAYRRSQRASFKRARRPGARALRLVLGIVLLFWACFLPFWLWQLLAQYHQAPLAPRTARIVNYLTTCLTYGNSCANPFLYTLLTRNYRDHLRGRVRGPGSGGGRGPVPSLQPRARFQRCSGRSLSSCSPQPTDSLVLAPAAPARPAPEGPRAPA
# Experimental: Figure 6 Signaling signature of hUT-pepducins following hUT receptor activation. […] Each curve represents mean ± SEM of at least three independent concentration-response experiments performed in triplicate.
# HEK 293-hUT cells were grown in DMEM culture media supplemented with 10% foetal bovine serum, HEPES, sodium pyruvate, and G418 (200 μg mL^−1). Passages were performed when cells reached 80% of confluency. Cells were initially plated in 96-well plates at a density of 10,000 cells/well. The following day, the medium is replaced with DMEM culture media supplemented with 2.5% foetal bovine serum (FBS), and 12 h later, cells were transiently transfected with 25 ng/well of a Gq-polycistronic, 25 ng/well of a G12-polycistronic BRET sensor, 25 ng/well of a G13-polycistronic BRET sensor, 2.5 ng/well pIRESB RLucII-ERK-NLS-GFP BRET sensor, 2.5 ng β-arrestin 1-polycistronic BRET sensor, or 2.5 ng β-arrestin 2-polycistronic BRET sensor using Lipofectamine2000 at a ratio of 3:1 (Lipofectamine/plasmid DNA) in serum-free Opti-MEM ([44], [81]). Sixteen hours posttransfection, medium was replaced with DMEM supplemented with 10% FBS, HEPES, sodium pyruvate and G418 (200 μg mL^−1) and cell growth was resumed for another 16 h. Cells were washed with 150 μl PBS solution supplemented with 0.1% of glucose and then incubated with 80 μl of this solution for 2 h. Then, to evaluate Gq and G12 activation, 10 μl of a 1/20 dilution (diluted before use) of coelenterazine 400A (stock at 1 mM in ethanol) in Kreb's buffer and 10 μl of the 10× appropriate concentration of peptide were added, and the luminescence was evaluated with an Infinite M1000 PRO. […] Readings were performed after 5 min using an Infinite M1000 PRO. Filters were set at 410 nm and 515 nm for detecting the Renilla luciferase II (RlucII, donor) and green fluorescent protein 10 (GFP10, acceptor) light emission, respectively. BRET ratio was determined by calculating the ratio of the light emitted by GFP10 over the light emitted by the RlucII.
# CHO-K1 cells = test: ERK1/2 phosphorylation, western blot, CHO-K1 cells not expressing hUT; details: CHO-K1, 5 min; hUII 10^−7 M, pepducins 10^−5 M; n = 3
# hUT [2] = molecular target: T1, hUT; test: IP1 production, IP-One terbium immunoassay, CHO-hUT cells; parameters: expressed in transfected cells; host or cells: CHO-K1 cells stably expressing hUT (gift from H. Vaudry and C. Dubessy, University of Rouen); details: for IP1 production efficacy at 10^−5 M: 40 min, normalized to the hUII maximum effect; for EC50: 40 min incubation at 37 °C, mean ± SEM of at least three independent experiments in triplicate, read-out: IP1 production pEC50 (converted)
# Experimental: Figure 3 IP1production (A and B) and ERK1/2phosphorylation (C and D) kinetics and concentration dependence following hUT activation. IP1 production was evaluated using the IP-One terbium immunoassay kits while ERK1/2 phosphorylation was measured by western blot in CHO-K1 cells stably expressing hUT. […] Each curve represents the mean ± SEM of at least three independent experiments performed in triplicate.
# This assay, performed with the IP-One terbium immunoassay kits from Cisbio, was used according to the manufacturer recommendation and as previously described ([43]). Briefly, CHO-hUT cells were grown in 10-cm dishes for 24 h. The cells were then starved without serum. The next day, cells were washed once with PBS and collected in PBS containing 20 mM EDTA. For the assay, 80,000 cells per well (96-well plate) were used. […] IP1-d2 and anti-IP1-cryptate were added for an additional 2 h at room temperature. Plates were read on a Flexstation 3 microplate reader.
# [3] = percentage of the activation induced by hUII (10^−6 M), n = 3–5
Emax at 1 µM (hUT [1]; [3]) [%],Emax (hUT [2]) [%],"time to plateau of IP1 production (hUT [2]; CHO-hUT, time course) [min]",Structure (SMILES),EC50 (hUT [1]) [nM],Emax (hUT [1]; [3]) [%],ERK1/2 phosphorylation in absence of receptor (CHO-K1 cells),IP1 production efficacy at 10^−5 M (hUT [2]; CHO-hUT),EC50 (hUT [2]; CHO-hUT) [nM]
–,–,–,"CCCCCCCCCCCCCCCC(=O)N[C@@H](Cc1c[nH]c2ccccc12)C(=O)N[C@@H](CC(C)C)C(=O)N[C@@H](CO)C(=O)N[C@@H](CCC(N)=O)C(=O)N[C@@H](CCCNC(=N)N)C(=O)N[C@@H](C)C(=O)N[C@@H](CO)C(=O)N[C@@H](Cc1ccccc1)C(=O)N[C@@H](CCCCN)C(=O)N[C@@H](CCCNC(=N)N)C(=O)N[C@@H](C)C(=O)N[C@@H](CCCNC(=N)N)C(=O)N[C@@H](CCCNC(=N)N)C(N)=O [[Trp^1, Leu^2]hUT-Pep3] (Palmitoyl-WLSQRASFKRARR-NH2)",4.57,29 ± 4,neither hUII nor hUT-derived pepducins were able to induce ERK1/2 phosphorylation,~60%,> 1000
109 ± 5,97 ± 1,40,"CC(C)[C@H](NC(=O)[C@@H]1CSSC[C@H](NC(=O)[C@H](CC(=O)O)NC(=O)[C@@H]2CCCN2C(=O)[C@@H](NC(=O)[C@@H](N)CCC(=O)O)[C@@H](C)O)C(=O)N[C@@H](Cc2ccccc2)C(=O)N[C@@H](Cc2c[nH]c3ccccc23)C(=O)N[C@@H](CCCCN)C(=O)N[C@@H](Cc2ccc(O)cc2)C(=O)N1)C(=O)O [hUII, urotensin II, reference compound]",–,–,neither hUII nor hUT-derived pepducins were able to induce ERK1/2 phosphorylation,–,–
–,–,–,CCCCCCCCCCCCCCCC(=O)N[C@@H](CCCNC(=N)N)C(=O)N1CCC[C@H]1C(=O)N[C@@H](CC(C)C)C(=O)N[C@@H](CC(=O)O)C(=O)N[C@H](C(=O)N[C@H](C(=O)N[C@@H](CCC(N)=O)C(=O)N[C@@H](CCCNC(=N)N)C(=O)N1CCC[C@H]1C(=O)N[C@@H](CCCCN)C(=O)NCC(=O)N[C@@H](Cc1ccc(O)cc1)C(N)=O)C(C)C)[C@@H](C)O [hUT-Pep2] (Palmitoyl-RPLDTVQRPKGY-NH2),49,~9,neither hUII nor hUT-derived pepducins were able to induce ERK1/2 phosphorylation,around 35%,> 1000
